Measurements: paper PMC5431200, “Identification of Streptococcus cristatus peptides that repress expression of virulence genes in Porphyromonas gingivalis” (Scientific Reports, 2017)

Legend:
rgpA/B = rgpA/B expression (catalytic regions of rgpA/B) in P. gingivalis with ArcA peptides, real-time qRT-PCR; format: cell-based, Porphyromonas gingivalis 33277; conditions: peptide 16 µM; P. gingivalis 33277 grown TSB; real-time PCR mRNA level relative to absence of peptide = 1 unit; means and SD of three independent experiments
Description: (§1) The IC50 for each gene was established using a Microsoft Excel program with add-in for curve fitting.
(§2) P. gingivalis were homogenized in Trizol Reagent (Invitrogen, Carlsbad, CA) and RNA was purified using an RNeasy mini spin column (Qiagen, Valencia, CA). RNA samples were digested on-column with RNase-free DNase, and total RNA was tested using an Agilent 2100 Bioanalyzer to ensure the quality of the samples. Amplification reactions consisted of a reverse transcription using a Bio-Rad iScript Reverse Transcription Supermix on a TC-3000 thermal cycler (Techne, Staffordshire, ST15 OSA, UK) and a real-time qRT-PCR analysis using a QuantiTect SYBR Green RT-PCR Kit (Qiagen) on an iCycler MyiQ^TM Real-Time PCR detection system (Bio-Rad Laboratories, Inc, Hercules, CA) according to the manufacturer’s instructions. P. gingivalis 16 S rRNA gene was used as a normalizing gene. […] The expression levels of the investigated genes for the test sample were determined relative to the untreated calibrator sample by using the comparative cycle threshold (ΔC T) method. ΔC T was calculated by subtracting the average C T value of the test sample from the average C T value of the calibrator sample, and the value used to calculate the ratio between the two by assuming 100% amplification efficiency.
(§3) Peptides were resuspended in nuclease/proteinase-free PBS, aliquoted, and stored at −20 °C. Inhibitory activity of peptides were determined as described[16] with slight modification. Peptides were mixed with 5 × 10^5 cells of P. gingivalis, spotted onto a TSB blood agar plate, and cultured for 60 h anaerobically. The expression levels of fimbrial and gingipain mRNA or proteins were measured using qRT-PCR or western blot analyses.

pgn0128 = pgn0128 (immunoreactive 53 kDa antigen) expression in P. gingivalis with ArcA peptides, real-time qRT-PCR; format: cell-based, Porphyromonas gingivalis 33277; conditions: peptide 16 µM; P. gingivalis 33277 grown TSB; real-time PCR mRNA level relative to absence of peptide = 1 unit; means and SD of three independent experiments
Description: as §2, §3

mfa1 = conditions: peptide 16 µM; P. gingivalis 33277 grown TSB; real-time PCR mRNA level relative to absence of peptide = 1 unit; means and SD of three independent experiments
Description: as §1, §2, §3

kgp = conditions: peptide 16 µM; P. gingivalis 33277 grown TSB; real-time PCR mRNA level relative to absence of peptide = 1 unit; means and SD of three independent experiments
Description: as §1, §2, §3

rgpA = conditions: peptide 16 µM; P. gingivalis 33277 grown TSB; real-time PCR mRNA level relative to absence of peptide = 1 unit; means and SD of three independent experiments
Description: as §1, §2, §3

fimA = fimA expression in P. gingivalis with ArcA peptides, real-time qRT-PCR; format: cell-based, Porphyromonas gingivalis 33277; conditions: peptide 16 µM; P. gingivalis 33277 grown TSB; real-time PCR mRNA level relative to absence of peptide = 1 unit; means and SD of three independent experiments
Description: as §1, §2, §3

[1] = tested on: fimA, mfa1, kgp, rgpA/B, rgpA; assay: Virulence gene expression in P. gingivalis with ArcA peptides, stated for the gene set, qRT-PCR; format: cell-based, Porphyromonas gingivalis 33277; conditions: peptide 16 µM (Table 1); at a lower efficiency than peptide4
Description: as §2, §3

Row | Substance | Relative expression level rgpA/B (rgpA/B) | Relative expression level pgn0128 (pgn0128) | Relative expression level mfa1 (mfa1) | Relative expression level kgp (kgp) | Relative expression level rgpA (rgpA) | Relative expression level fimA (fimA) | Inhibitory activity on virulence gene expression (in words) [1]
1 | V208YNREEDTRIEGGDEL [Peptide P3] | 0.98 ± 0.06 | 0.91 ± 0.07 | 0.82 ± 0.07 | 0.99 ± 0.12 | 0.84 ± 0.06 | 0.87 ± 0.10 | some inhibitory activity
2 | E389LVRGRGGPRCMSMPF [Peptide P5] | 0.72 ± 0.05 | 0.91 ± 0.06 | 0.83 ± 0.04 | 0.96 ± 0.12 | 0.73 ± 0.06 | 0.97 ± 0.05 | some inhibitory activity
3 | I97RGRETKK [Peptide P1] | 0.89 ± 0.05 | 0.96 ± 0.06 | 0.85 ± 0.05 | 1.06 ± 0.12 | 0.86 ± 0.07 | 0.88 ± 0.08 | some inhibitory activity
